Tests used:
[1] = aqueous solubility of roflumilast reported in WO95/01338; assay type: physicochemical; details: cited 0.53 mg/l (21° C.) value converted to w/w %
From the text: Roflumilast and its synthesis were described in U.S. Pat. No. 5,712,298 (the “'298 patent”), incorporated herein by reference.* It has long been recognized that pharmaceutical compounds having phosphodiesterase (PDE)-inhibiting properties, such as roflumilast, are useful for treating psoriasis and atopic dermatitis ('298 patent, col 11 lines 52-61) and other chronic inflammatory and allergen-induced dermatoses. For treatment of such dermatoses, roflumilast emulsions, suspensions, gels or solutions for topical application have been described ('298 patent, col 12, lines 37-64). […] This low aqueous solubility has been problematic for the development of parenteral preparations and topical emulsions, suspensions, gels or solutions containing water. In U.S. Pat. No. 9,205,044 (incorporated herein by reference), the poor water solubility of roflumilast was overcome by using an alkoxylated fat, specifically polyoxyethylated 12-hydroxystearic acid, as a co-solvent for parenteral administration.

[2] = Protocol: (§1) Roflumilast (Batch A14367P from Interquim S.A.), 0.0205 grams, was weighed into a liquid scintillation vial. DEGEE (Transcutol P, lot 146063, Gattefosse) was added dropwise with mixing to the vial containing roflumilast. After mixing each addition of DEGEE, the tightly capped vial was returned to a water bath set at 25° C.
0.0111 grams of roflumilast (Batch A14367P from Interquim S.A.) was weighed into a liquid scintillation vial. An equimolar blend of DEGEE (Transcutol P, lot 146063, Gattefosse) and distilled water was prepared and added dropwise with mixing to the vial containing roflumilast. An equimolar blend is 88.3% DEGEE and 11.7% water on a weight/weight percent basis. After mixing each addition of equimolar DEGEE:Water, the tightly capped vial was returned to a water bath set at 25° C.

[3] = remark: listed apart in the source
Protocol: as §1, with “0.0061” for “0.0205”, “PG (propylene glycol, Spectrum Chemical” for “DEGEE (Transcutol P,”, “IEC0004)” for “146063, Gattefosse)”, “PG,” for “DEGEE,”
2.3200 grams of an equimolar blend of PG (Spectrum Chemical lot IEC0004) and distilled water was prepared and added to a scintillation vial containing 0.0012 grams of roflumilast (Batch A14367P from Interquim S.A.). […] An equimolar blend is 80.7% PG and 19.3% water on a weight/weight percent basis.

With O=C(Nc1c(Cl)cncc1Cl)c1ccc(OC(F)F)c(OCC2CC2)c1 [roflumilast, N-(3,5-dichloropyrid-4-yl)-3-cyclopropylmethoxy-4-difluoromethoxybenzamid-e] the “saturation solubility of roflumilast in water” value [1] was 0.000053 w/w %, the “calculated ideal solubility in equimolar DEGEE:Water” value [2] was 0.019 w/w % and the “observed saturation solubility greater than calculated ideal solubility in equimolar DEGEE:Water” value [2] was 232 fold. The “observed saturation solubility in DEGEE” value [2] was 7.1 w/w %, the “observed saturation solubility in equimolar DEGEE:Water” value [2] was 4.4 w/w % and the “calculated ideal solubility in equimolar PG:Water” value [3] was 0.0040 w/w %. The “observed saturation solubility greater than calculated ideal solubility in equimolar PG:Water” value [3] was 15 fold, the “observed saturation solubility in PG” value [3] was 0.3 w/w % and the “observed saturation solubility in equimolar PG:Water” value [3] was 0.06 w/w %.
